Laboratory results as given in PubChem BioAssay AID2060335 (Molecular Pharmacology Branch, DTP, NCI, 2025).

Tested on: DU-145 multicell spheroids with HUVEC/MSC, viability
Assay: Anticancer human tumor DU-145 cell line growth inhibition [IpAb];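 also: spheroids exposed to agents for seven days before measurement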;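 as to viability, T/C: percent of DMSO vehicle control viability so 100% = untreated level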
Conditions: for IC50: curve of first compound; for viability, T/C: stronger effect = lower value
Text: Combinatorial screen of targeted agents with ipatasertib and abemaciclib in multi-cell type tumor spheroids
A high-throughput screen of multi-cell type tumor spheroids was designed to identify active combinations of targeted small molecules and ipatasertib or abemaciclib. Complex spheroids include a stromal component modeled by human endothelial cells (HUVEC) and fibroblasts modeled by human mesenchymal stem cells (MSCs). The concentration ranges selected for each drug and investigational agent were based upon clinically achievable concentrations if the clinical Cmax of the agent was known.
Compounds. The drugs and investigational agents: ipatasertib (NSC767898), abemaciclib(NSC768073), selumetinib (NSC741078), trametinib (758246), adavosertib (NSC754352), everolimus (NSC733504), sapanisertib (NSC764658), vemurafenib (NSC761431), venetoclax (NSC766270), copanlisib (NSC809693), apelisib (NSC765974), palbociblib (NSC758247), vemurafenib (NSC761431), dabrafenib (NSC764134), ravoxertinib (NSC781343), BMS-387032 (NSC767048), sotorasib (NSC818433), talazoparib (NSC767125) and afursertib (NSC778305), were obtained from the National Cancer Institute (NCI) Developmental Therapeutics Program Chemical Repository. The FDA-approved anticancer drug set is available from the NCI Developmental Therapeutics Program. […] The stock solutions were prepared in dimethyl sulfoxide (DMSO, Sigma-Aldrich, St. Louis, MO, cat. D2650) at 800-fold the tested concentration and stored at -70 degrees C prior to their use. All drugs and investigational agents were tested over a range starting from a high concentration at or near the clinical Cmax and decreasing in half-log increments. If the clinical Cmax for an agent had not been determined, the highest concentration tested was 10 microM.
NCI60 Cell Culture. NCI60 cell lines were obtained from the NCI Developmental Therapeutics Program Tumor Repository. For each lot of cells, the Repository performed Applied Biosystems AmpFLSTR Identifiler testing with PCR amplification to confirm consistency with the published Identifier STR profile for each cell line. Cells were kept in continuous culture for no more than 20 passages. The optimal seeding densities for each of the cell lines at each time point assessed were determined prior to performing the concentration response studies. Briefly, the NCI60 human tumor lines were grown as monolayers in RPMI 1640 medium supplemented with 10% FBS and 2 mmol/L L-glutamine.
An additional 9 lines were from the NCI60 cell line panel including MDA-MB-231 breast carcinoma, MDA-MB-468 breast carcinoma, MCF7 breast carcinoma, Hs578T breast carcinoma, MALME-3M melanoma, SK-MEL-2 melanoma, SK-OV-3 ovarian carcinoma, DU-145 prostate carcinoma, PC-3 prostate carcinoma, all cell lines along with major genetic alterations are listed on Table 2. Pooled donor human umbilical vein endothelial cells (HUVEC, Lonza, cat. CC-2519) and human mesenchymal stem cells (hMSC, Lonza, cat. PT-2501) were purchased from Lonza (Walkersville, MD).
PDMR cell lines were grown in complete medium (DC medium): Dulbecco's modified Eagle's medium (DMEM)/F12 supplemented with 5% fetal bovine serum (FBS), 2 mM L-glutamine, 100 U/mL penicillin and 100 µg/ml streptomycin, 0.4 µg/ml hydrocortisone, 10 ng/ml epidermal growth factor (EGF) recombinant human protein, 24 µg/mL adenine, and 0.1 mg/mL primocin. During culture from frozen stock vials, PDMR cells were cultured in the same medium containing 10 µM Y-27632 (see Table 3). The PDCs were cultured in complete DMEM/F12 media without 10 microM Y-27632 dihydrochloride for at least two passages prior to the screen. The pooled donor HUVEC and hMSC were cultured in endothelial cell growth medium 2 (PromoCell, Heidelberg, Germany, cat. C-22011) and mesenchymal stem cell growth medium 2 (PromoCell, cat. C-28009), respectively. For all experiments, HUVEC and hMSC were used at passages </=5.
[…]

## C=CCn1c(=O)c2cnc(Nc3ccc(N4CCN(C)CC4)cc3)nc2n1-c1cccc(C(C)(C)O)n1 + CC(C)NCC(C(=O)N1CCN(c2ncnc3c2C(C)CC3O)CC1)c1ccc(Cl)cc1
Second compound 0.1 µM
  IC50: 0.0827 µM
Second compound 0.316 µM
  IC50: < 0.0316 µM
Second compound 1 µM
  IC50: < 0.0316 µM
Second compound 3.16 µM
  IC50: < 0.0316 µM
Second compound 10 µM
  IC50: < 0.0316 µM
Second compound 0.1 µM, first compound 0.0316 µM
  viability, T/C: 71%
Second compound 0.1 µM, first compound 0.1 µM
  viability, T/C: 47.1%
Second compound 0.1 µM, first compound 0.316 µM
  viability, T/C: 26.5%
Second compound 0.1 µM, first compound 1 µM
  viability, T/C: 23.9%
Second compound 0.1 µM, first compound 3.16 µM
  viability, T/C: 17.5%
Second compound 0.1 µM, first compound 10 µM
  viability, T/C: 13.7%
Second compound 0.316 µM, first compound 0.0316 µM
  viability, T/C: 44.6%
Second compound 0.316 µM, first compound 0.1 µM
  viability, T/C: 36.7%
Second compound 0.316 µM, first compound 0.316 µM
  viability, T/C: 19.3%
Second compound 0.316 µM, first compound 1 µM
  viability, T/C: 18.8%
Second compound 0.316 µM, first compound 3.16 µM
  viability, T/C: 15.8%
Second compound 0.316 µM, first compound 10 µM
  viability, T/C: 12.9%
Second compound 1 µM, first compound 0.0316 µM
  viability, T/C: 32.7%
Second compound 1 µM, first compound 0.1 µM
  viability, T/C: 26.6%
Second compound 1 µM, first compound 0.316 µM
  viability, T/C: 13.3%
Second compound 1 µM, first compound 1 µM
  viability, T/C: 15.1%
Second compound 1 µM, first compound 3.16 µM
  viability, T/C: 14.3%
Second compound 1 µM, first compound 10 µM
  viability, T/C: 12.6%
Second compound 3.16 µM, first compound 0.0316 µM
  viability, T/C: 23%
Second compound 3.16 µM, first compound 0.1 µM
  viability, T/C: 16.1%
Second compound 3.16 µM, first compound 0.316 µM
  viability, T/C: 10%
Second compound 3.16 µM, first compound 1 µM
  viability, T/C: 12%
Second compound 3.16 µM, first compound 3.16 µM
  viability, T/C: 11.8%
Second compound 3.16 µM, first compound 10 µM
  viability, T/C: 10.4%
Second compound 10 µM, first compound 0.0316 µM
  viability, T/C: 16.9%
Second compound 10 µM, first compound 0.1 µM
  viability, T/C: 14%
Second compound 10 µM, first compound 0.316 µM
  viability, T/C: 8.4%
Second compound 10 µM, first compound 1 µM
  viability, T/C: 10.6%
Second compound 10 µM, first compound 3.16 µM
  viability, T/C: 9.3%
Second compound 10 µM, first compound 10 µM
  viability, T/C: 9.33%

## Cn1cnc2c(F)c(Nc3ccc(Br)cc3Cl)c(C(=O)NOCCO)cc21 + CC(C)NCC(C(=O)N1CCN(c2ncnc3c2C(C)CC3O)CC1)c1ccc(Cl)cc1
Second compound 0.1 µM
  IC50: 0.158 µM
Second compound 0.316 µM
  IC50: < 0.00949 µM
Second compound 1 µM
  IC50: < 0.00949 µM
Second compound 3.16 µM
  IC50: < 0.00949 µM
Second compound 10 µM
  IC50: < 0.00949 µM
Second compound 0.1 µM, first compound 0.00949 µM
  viability, T/C: 64.7%
Second compound 0.1 µM, first compound 0.03 µM
  viability, T/C: 62.4%
Second compound 0.1 µM, first compound 0.0949 µM
  viability, T/C: 52.3%
Second compound 0.1 µM, first compound 0.3 µM
  viability, T/C: 41.3%
Second compound 0.1 µM, first compound 0.949 µM
  viability, T/C: 46.5%
Second compound 0.1 µM, first compound 3 µM
  viability, T/C: 34.9%
Second compound 0.316 µM, first compound 0.00949 µM
  viability, T/C: 44.7%
Second compound 0.316 µM, first compound 0.03 µM
  viability, T/C: 41.9%
Second compound 0.316 µM, first compound 0.0949 µM
  viability, T/C: 38.8%
Second compound 0.316 µM, first compound 0.3 µM
  viability, T/C: 33.1%
Second compound 0.316 µM, first compound 0.949 µM
  viability, T/C: 32.9%
Second compound 0.316 µM, first compound 3 µM
  viability, T/C: 25%
Second compound 1 µM, first compound 0.00949 µM
  viability, T/C: 31.4%
Second compound 1 µM, first compound 0.03 µM
  viability, T/C: 30.4%
Second compound 1 µM, first compound 0.0949 µM
  viability, T/C: 27.6%
Second compound 1 µM, first compound 0.3 µM
  viability, T/C: 23%
Second compound 1 µM, first compound 0.949 µM
  viability, T/C: 21.5%
Second compound 1 µM, first compound 3 µM
  viability, T/C: 19.2%
Second compound 3.16 µM, first compound 0.00949 µM
  viability, T/C: 18.2%
Second compound 3.16 µM, first compound 0.03 µM
  viability, T/C: 17%
Second compound 3.16 µM, first compound 0.0949 µM
  viability, T/C: 16.5%
Second compound 3.16 µM, first compound 0.3 µM
  viability, T/C: 14.3%
Second compound 3.16 µM, first compound 0.949 µM
  viability, T/C: 14.5%
Second compound 3.16 µM, first compound 3 µM
  viability, T/C: 12%
Second compound 10 µM, first compound 0.00949 µM
  viability, T/C: 16.2%
Second compound 10 µM, first compound 0.03 µM
  viability, T/C: 13.7%
Second compound 10 µM, first compound 0.0949 µM
  viability, T/C: 13.3%
Second compound 10 µM, first compound 0.3 µM
  viability, T/C: 11.8%
Second compound 10 µM, first compound 0.949 µM
  viability, T/C: 11.4%
Second compound 10 µM, first compound 3 µM
  viability, T/C: 10.4%
